17 compounds from US20220324800A1 (priority 2021, published 2022) can be followed below.

Molecules are shown by their SMILES. pIC50: −log10 of the molar value.

This assay deals with 3CLpro (Severe acute respiratory syndrome coronavirus 2, UniProt P0DTD1). Briefly: biochemical. Details: species or system SARS-CoV-2.

By pIC50 is commonly meant the IC50 on a negative log10 scale, so that one unit is a factor of ten. Lower therefore signals a large IC50. `CC(C)C[C@H](NC(=O)OC(C)(C)C)C(=O)CN(C[C@@H]1CCNC1=O)C(=O)CCl` [Example 1, Tert-butyl ((S)-1-(2-chloro-N—(((S)-2-oxopyrrolidin-3-yl)methyl)acetamido)-5-methyl-2-oxohexan-3-yl)carbamate]: the pIC50 is above 5.70.
Consider `COc1cccc2[nH]c(C(=O)N[C@@H](CC(C)C)C(=O)CN(C[C@@H]3CCNC3=O)C(=O)CCl)cc12` [Example 2, N—((S)-1-(2-Chloro-N—(((S)-2-oxopyrrolidin-3-yl)methyl)acetamido)-5-methyl-2-oxohexan-3-yl)-4-methoxy-1H-indole-2-carboxamide], for which the pIC50 is above 5.70.
In the case of `C=CC(=O)N(CC(=O)[C@H](CC(C)C)NC(=O)OC(C)(C)C)C[C@@H]1CCNC1=O` [Example 3, Tert-butyl ((S)-5-methyl-2-oxo-1-(N—(((S)-2-oxopyrrolidin-3-yl)methyl)acrylamido)hexan-3-yl)carbamate], the pIC50 was below 4.70.
Turning to `C=CC(=O)N(CC(=O)[C@H](CC(C)C)NC(=O)c1cc2c(OC)cccc2[nH]1)C[C@@H]1CCNC1=O` [Example 4, 4-Methoxy-N—((S)-5-methyl-2-oxo-1-(N—(((S)-2-oxopyrrolidin-3-yl)methyl)acrylamido)hexan-3-yl)-1H-indole-2-carboxamide], the pIC50 is below 4.70.
In the case of `C#CC(=O)N(CC(=O)[C@H](CC(C)C)NC(=O)c1cc2c(OC)cccc2[nH]1)C[C@@H]1CCNC1=O` [Example 6, 4-Methoxy-N—((S)-5-methyl-2-oxo-1-(N—(((S)-2-oxopyrrolidin-3-yl)methyl)propiolamido)hexan-3-yl)-1H-indole-2-carboxamide] it was 4.70 to 5.70; in that of `COc1cccc2[nH]c(C(=O)N[C@@H](CC(C)C)C(=O)CN(C[C@@H]3CCNC3=O)C(=O)CF)cc12` [Example 8, N—((S)-1-(2-Fluoro-N—(((S)-2-oxopyrrolidin-3-yl)methyl)acetamido)-5-methyl-2-oxohexan-3-yl)-4-methoxy-1H-indole-2-carboxamide], below 4.70; in that of `COc1cccc2[nH]c(C(=O)N[C@@H](CC(C)C)C(=O)CN(C[C@@H]3CCNC3=O)S(=O)(=O)CCl)cc12` [Example 10, N—((S)-1-((1-Chloro-N—(((S)-2-oxopyrrolidin-3-yl)methyl)methyl)sulfonamido)-5-methyl-2-oxohexan-3-yl)-4-methoxy-1H-indole-2-carboxamide], below 4.70.
In the case of `CC(C)C[C@H](NC(=O)c1cc(Cl)c(Cl)s1)C(=O)CN(C[C@@H]1CCNC1=O)C(=O)CCl` [Example 11, 4,5-Dichloro-N—((S)-1-(2-chloro-N—(((S)-2-oxopyrrolidin-3-yl)methyl)acetamido)-5-methyl-2-oxohexan-3-yl)thiophene-2-carboxamide] it was above 5.70; in that of `CC(C)C[C@H](NC(=O)c1cc2c(F)cccc2s1)C(=O)CN(C[C@@H]1CCNC1=O)C(=O)CCl` [Example 12, N—((S)-1-(2-Chloro-N—(((S)-2-oxopyrrolidin-3-yl)methyl)acetamido)-5-methyl-2-oxohexan-3-yl)-4-fluorobenzo[b]thiophene-2-carboxamide], above 5.70; in that of `CC(C)C[C@H](NC(=O)c1cccs1)C(=O)CN(C[C@@H]1CCNC1=O)C(=O)CCl` [Example 13, N—((S)-1-(2-Chloro-N—(((S)-2-oxopyrrolidin-3-yl)methyl)acetamido)-5-methyl-2-oxohexan-3-yl)thiophene-2-carboxamide], above 5.70.
Compound `CC(C)C[C@H](NC(=O)c1cc2ccccc2o1)C(=O)CN(C[C@@H]1CCNC1=O)C(=O)CCl` [Example 14, N—((S)-1-(2-Chloro-N—(((S)-2-oxopyrrolidin-3-yl)methyl)acetamido)-5-methyl-2-oxohexan-3-yl)benzofuran-2-carboxamide] gave a pIC50 above 5.70.
In the case of `CC(C)C[C@H](NC(=O)c1cc2c(F)cccc2o1)C(=O)CN(C[C@@H]1CCNC1=O)C(=O)CCl` [Example 15, N—((S)-1-(2-Chloro-N—(((S)-2-oxopyrrolidin-3-yl)methyl)acetamido)-5-methyl-2-oxohexan-3-yl)-4-fluorobenzofuran-2-carboxamide] it was above 5.70.
In the case of `CC(C)C[C@H](NC(=O)OC(C)(C)C)C(=O)CN(C[C@@H]1CCNC1=O)C(=O)SCc1ccccc1` [Example 16, Tert-butyl ((S)-1-(((benzylthio)carbonyl)(((S)-2-oxopyrrolidin-3-yl)methyl)amino)-5-methyl-2-oxohexan-3-yl)carbamate] it was below 4.70; in that of `CC(=O)OCC(=O)N(CC(=O)[C@H](CC(C)C)NC(=O)OC(C)(C)C)C[C@@H]1CCNC1=O` [Example 17, 2-(((S)-3-((Tert-butoxycarbonyl)amino)-5-methyl-2-oxohexyl)(((S)-2-oxopyrrolidin-3-yl)methyl)amino)-2-oxoethyl acetate], below 4.70; in that of `COc1cccc2[nH]c(C(=O)N[C@@H](CC(C)C)C(=O)CN(C[C@@H]3CCNC3=O)C(=O)SCc3ccccc3)cc12` [Example 18, S-Benzyl ((S)-3-(4-methoxy-1H-indole-2-carboxamido)-5-methyl-2-oxohexyl)(((S)-2-oxopyrrolidin-3-yl)methyl)carbamothioate], below 4.70.
The compound `CC(C)C[C@H](NC(=O)OCc1ccccc1)C(=O)CN(C[C@@H]1CCNC1=O)C(=O)CCl` [Example 20, Benzyl ((S)-1-(2-chloro-N—(((S)-2-oxopyrrolidin-3-yl)methyl)acetamido)-5-methyl-2-oxohexan-3-yl)carbamate] showed a pIC50 above 5.70.
For the compound `CC(C)C[C@@H](NC(=O)OCc1ccccc1)C(=O)CN(C[C@@H]1CCNC1=O)C(=O)CCl` [Example 21, Benzyl ((R)-1-(2-chloro-N—(((S)-2-oxopyrrolidin-3-yl)methyl)acetamido)-5-methyl-2-oxohexan-3-yl)carbamate], the pIC50 is 4.70 to 5.70.
